{
  "source": "patent EP3049422B1",
  "about": "“INTUMESCENT COATINGS” (MIPA SE, priority 2013, dated 2015)",
  "data": [
    {"experiment": "Water solubility of the salts", "type": "physicochemical", "conditions": "not given", "source_text": "(§1) Organische Lösungsmittel tragen zur Umweltverschmutzung bei und deshalb ist es wünschenswert, Wasser als Basis für Reaktionen oder auch Lacke zu verwenden. […] Wir beobachteten, dass vor allem die Kombination mit Alkalimetallen zu einer sehr guten Löslichkeit führte.\n(§2) Ein wichtiges Kriterium für die Auswahl der Substanzen für eingehendere Studien, war deren Wasserlöslichkeit. Ausgeschlossen wurden vor allem Verbindungen, die höhere Kationen als die Alkalimetalle enthalten, da diese nur sehr schlecht löslich sind. Trotzdem wurde zumindest für zwei wasserunlösliche Salze versucht, sie als Suspensionen aufzubringen. Ausgewählt wurden dafür ALDA und Calcium(II)hydantoinat.", "values": [
      {"molecule": "O=C1CNC(=O)N1", "note": "[Hydantoin Kalium, Kalium(I)hydantoinat]", "Wasser löslich": "+"},
      {"molecule": "CC(N1CC(=O)NC1=O)N1CC(=O)NC1=O", "note": "[1,1'-(Methylmethylen) bishydantoin Kalium] [Kalium(I)N,N'-(methylmethylen)bishydantoinat]", "Wasser löslich": "+"},
      {"molecule": "O=C1CNC(=O)N1", "note": "[Hydantoin Natrium, Natrium(I)hydantoinat]", "Wasser löslich": "+"},
      {"molecule": "NC(=O)NC1NC(=O)NC1=O", "note": "(stereo not shown) [Allantoin, reference compound]", "Wasserlöslichkeit": "schlecht wasserlöslich"},
      {"molecule": "O=C1CN(CN2CC(=O)[N-]C2=O)C(=O)[N-]1.OC[P+](CO)(CO)CO.OC[P+](CO)(CO)CO", "note": "[Bis[tetrakis(hydroxymethyl)phosphonium]N,N'-methylenbishydantoinat]", "Wasser löslich": "+"},
      {"molecule": "O=C1CNC(=O)N1", "note": "[Hydantoin Tetramethylammonium, Tetramethylammoniumhydantoinat]", "Wasser löslich": "+"},
      {"molecule": "Dihydroxyaluminiumallantoinat [Allantoin Al(OH)2*, reference compound]", "Wasser löslich": "-"},
      {"molecule": "CC(N1CC(=O)NC1=O)N1CC(=O)NC1=O", "note": "[1,1'-(Methylmethylen) bishydantoin Natrium] [Natrium(I)N,N'-(methylmethylen)bishydantoinat]", "Wasser löslich": "+"},
      {"molecule": "NC(=O)NC1NC(=O)NC1=O", "note": "(stereo not shown) [Allantoin Calcium, Calcium(II)allantoinat]", "Wasser löslich": "+"},
      {"molecule": "CC(N1CC(=O)NC1=O)N1CC(=O)NC1=O", "note": "[1,1'-(Methylmethylen) bishydantoin Calcium] [Calcium(II)N,N'-(methylmethylen)bishydantoinat]", "Wasser löslich": "+"},
      {"molecule": "NC(=O)NC1NC(=O)NC1=O", "note": "(stereo not shown) [Allantoin Natrium, Natrium(I)allantoinat]", "Wasser löslich": "+"},
      {"molecule": "Tetrakis(hydroxymethyl)phosphoniumhydantoinat", "Wasser löslich": "+"},
      {"molecule": "NC(=O)NC1NC(=O)NC1=O", "note": "(stereo not shown) [Allantoin Kalium, Kalium(I)allantoinat]", "Wasser löslich": "+"},
      {"molecule": "O=C1CN(CN2CC(=O)NC2=O)C(=O)N1", "note": "[1,1'-(Methylen) bishydantoin Kalium, Kalium(I)N,N'-methylenbishydantoinat]", "Wasser löslich": "+"},
      {"molecule": "O=C1CNC(=O)N1", "note": "[Hydantoin Calcium, Calcium(II)hydantoinat]", "Wasser löslich": "-"},
      {"molecule": "O=C1CN(CN2CC(=O)NC2=O)C(=O)N1", "note": "[1,1'-(Methylen) bishydantoin Natrium, Natrium(I)N,N'-methylenbishydantoinat]", "Wasser löslich": "+"}
    ]},
    {"experiment": "Water solubility of the salts", "type": "physicochemical", "conditions": "in words", "source_text": "as §1, §2", "values": [
      {"molecule": "O=C1CNC(=O)N1", "note": "[Hydantoin, reference compound]", "Wasserlöslichkeit": "schlecht wasserlöslich"},
      {"molecule": "Dihydroxyaluminiumallantoinat [Allantoin Al(OH)2*, reference compound]", "Wasserlöslichkeit": "wasserunlösliche"},
      {"molecule": "O=C1CNC(=O)N1", "note": "[Hydantoin Calcium, Calcium(II)hydantoinat]", "Wasserlöslichkeit": "wasserunlösliche"}
    ]}
  ]
}
